Assay results reported in publication PMC3961306, “Comparison of the Cancer Gene Targeting and Biochemical Selectivities of All Targeted Kinase Inhibitors Approved for Clinical Use” (PLoS ONE, 2014).

Assays:
Experiment in all cases: Kinase profiling in a biochemical assay panel (mobility shift assays and ELISA), %-inhibition at 1 μM; selectivity entropy
[1] = target: panel of more than 300 wild-type and mutant kinases (313 kinase panel) (Homo sapiens, UniProt Q9HCP0)
[2] = target: panel of more than 300 wild-type and mutant kinases (313 kinase panel) (Homo sapiens, UniProt Q00535)
Chain of panel of more than 300 wild-type and mutant kinases (313 kinase panel) (Homo sapiens, UniProt Q00535) (Q00535 whole entry, change not shown): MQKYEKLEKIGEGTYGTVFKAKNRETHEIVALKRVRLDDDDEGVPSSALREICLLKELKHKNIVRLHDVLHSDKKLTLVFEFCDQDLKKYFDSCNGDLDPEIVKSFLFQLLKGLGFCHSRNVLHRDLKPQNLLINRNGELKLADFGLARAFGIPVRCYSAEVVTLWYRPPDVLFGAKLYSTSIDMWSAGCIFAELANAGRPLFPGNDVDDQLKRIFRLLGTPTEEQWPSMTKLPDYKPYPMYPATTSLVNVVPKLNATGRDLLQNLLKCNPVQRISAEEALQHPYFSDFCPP

[3] = target: panel of more than 300 wild-type and mutant kinases (313 kinase panel) (Homo sapiens, UniProt P04629)
[4] = target: T1, panel of more than 300 wild-type and mutant kinases (313 kinase panel) (Homo sapiens, UniProt P29320)
T1 sequence (P29320 21-983): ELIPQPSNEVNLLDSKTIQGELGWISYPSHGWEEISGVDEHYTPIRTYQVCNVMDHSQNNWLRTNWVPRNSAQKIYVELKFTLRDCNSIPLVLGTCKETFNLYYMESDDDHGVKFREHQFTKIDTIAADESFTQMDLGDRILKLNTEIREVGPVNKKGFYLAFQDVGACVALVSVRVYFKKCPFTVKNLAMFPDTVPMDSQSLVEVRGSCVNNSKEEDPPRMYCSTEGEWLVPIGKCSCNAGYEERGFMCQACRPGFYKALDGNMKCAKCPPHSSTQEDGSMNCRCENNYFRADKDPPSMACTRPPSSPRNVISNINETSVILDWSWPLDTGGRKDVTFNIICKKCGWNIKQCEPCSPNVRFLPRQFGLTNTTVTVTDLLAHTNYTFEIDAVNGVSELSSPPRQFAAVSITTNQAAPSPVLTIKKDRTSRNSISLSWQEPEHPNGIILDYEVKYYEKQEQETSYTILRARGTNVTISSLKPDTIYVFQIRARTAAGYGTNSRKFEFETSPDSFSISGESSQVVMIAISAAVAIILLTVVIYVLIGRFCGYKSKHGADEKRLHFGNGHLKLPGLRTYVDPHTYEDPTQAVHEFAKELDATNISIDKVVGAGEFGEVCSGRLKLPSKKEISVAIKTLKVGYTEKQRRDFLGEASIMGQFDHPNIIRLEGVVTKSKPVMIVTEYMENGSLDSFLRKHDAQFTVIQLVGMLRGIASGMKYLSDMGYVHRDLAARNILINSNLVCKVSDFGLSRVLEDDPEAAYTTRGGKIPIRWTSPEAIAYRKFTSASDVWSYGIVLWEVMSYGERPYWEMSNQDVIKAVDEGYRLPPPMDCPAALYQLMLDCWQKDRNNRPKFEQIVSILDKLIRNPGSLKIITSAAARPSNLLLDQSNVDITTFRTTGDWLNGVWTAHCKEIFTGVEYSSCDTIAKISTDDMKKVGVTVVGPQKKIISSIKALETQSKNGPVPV

[5] = target: panel of more than 300 wild-type and mutant kinases (313 kinase panel) (Homo sapiens, UniProt P78362)
[6] = target: panel of more than 300 wild-type and mutant kinases (313 kinase panel) (Homo sapiens, UniProt Q5VT25)
[7] = target: panel of more than 300 wild-type and mutant kinases (313 kinase panel) (Homo sapiens, UniProt Q16620)
[8] = target: panel of more than 300 wild-type and mutant kinases (313 kinase panel) (Homo sapiens, UniProt Q9HBH9)
[9] = target: panel of more than 300 wild-type and mutant kinases (313 kinase panel) (Homo sapiens, UniProt P35916)
[10] = target: panel of more than 300 wild-type and mutant kinases (313 kinase panel) (Homo sapiens, UniProt Q15418)
[11] = target: panel of more than 300 wild-type and mutant kinases (313 kinase panel) (Homo sapiens, UniProt Q9H2X6)
[12] = target: panel of more than 300 wild-type and mutant kinases (313 kinase panel) (Homo sapiens, UniProt O96013)
[13] = target: panel of more than 300 wild-type and mutant kinases (313 kinase panel) (Homo sapiens, UniProt Q9Y243)
Chain of panel of more than 300 wild-type and mutant kinases (313 kinase panel) (Homo sapiens, UniProt Q9Y243) (Q9Y243 whole entry, change not shown): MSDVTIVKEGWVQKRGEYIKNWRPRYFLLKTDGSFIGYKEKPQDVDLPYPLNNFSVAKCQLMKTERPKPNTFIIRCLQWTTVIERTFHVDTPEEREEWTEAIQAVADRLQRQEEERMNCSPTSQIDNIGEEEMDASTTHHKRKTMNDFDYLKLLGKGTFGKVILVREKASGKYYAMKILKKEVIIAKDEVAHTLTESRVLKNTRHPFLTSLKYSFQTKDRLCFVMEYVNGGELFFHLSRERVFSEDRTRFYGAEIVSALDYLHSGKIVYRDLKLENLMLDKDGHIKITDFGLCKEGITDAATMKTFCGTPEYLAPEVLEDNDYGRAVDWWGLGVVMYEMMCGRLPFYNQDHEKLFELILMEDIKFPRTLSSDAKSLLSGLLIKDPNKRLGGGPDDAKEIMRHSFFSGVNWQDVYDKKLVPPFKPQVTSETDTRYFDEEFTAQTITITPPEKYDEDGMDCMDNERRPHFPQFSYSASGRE

| Structure (SMILES) | %-inhibition, CK1γ1 ([1]; kinase CK1γ1, 1 μM compound) [%] | %-inhibition, CDK5/p25 ([2]; kinase CDK5/p25, 1 μM compound) [%] | %-inhibition of TRKA ([3]; kinase TRKA, 1 μM) [%] | %-inhibition of EPHA3 ([4]; kinase EPHA3, compound at 1 μM) [%] | %-inhibition of SRPK2 ([5]; kinase SRPK2, 1 μM) [%] | %-inhibition of MRCKα ([6]; kinase MRCKα, 1 μM) [%] | %-inhibition of TRKB ([7]; kinase TRKB, 1 μM) [%] | %-inhibition of MNK2 ([8]; kinase MNK2, 1 μM) [%] | %-inhibition of FLT4 ([9]; kinase FLT4, compound at 1 μM) [%] | %-inhibition of RSK1 ([10]; kinase RSK1, 1 μM) [%] | %-inhibition of HIPK2 ([11]; kinase HIPK2, compound at 1 μM) [%] | %-inhibition of PAK4 ([12]; kinase PAK4, 1 μM) [%] | %-inhibition, AKT3 ([13]; kinase AKT3, 1 μM compound) [%] | further results |
| --- | --- | --- | --- | --- | --- | --- | --- | --- | --- | --- | --- | --- | --- | --- |
| Cc1ccc(C(=O)Nc2ccc(CN3CCN(C)CC3)c(C(F)(F)F)c2)cc1C#Cc1cnc2cccnn12 [ponatinib] | -4 | -20 | 101 | 102 | -3 | -0.575 | 100 | 97 | 101 | 32 | – | – | – | – |
| CC(C)(C)c1nc(-c2cccc(NS(=O)(=O)c3c(F)cccc3F)c2F)c(-c2ccnc(N)n2)s1 [dabrafenib] | – | 22 | – | 18 | 11 | -1.84 | 86 | – | 85 | – | 42 | 11 | – | – |
| COc1cc(Nc2c(C#N)cnc3cc(OCCCN4CCN(C)CC4)c(OC)cc23)c(Cl)cc1Cl [bosutinib] | 14 | -25 | 88 | 67 | -9 | – | 62 | -2 | 92 | – | – | – | – | – |
| Cc1nc(Nc2ncc(C(=O)Nc3c(C)cccc3Cl)s2)cc(N2CCN(CCO)CC2)n1 [dasatinib] | – | 4.63 | – | – | – | – | – | – | 31 | – | 6 | – | – | – |
| CO[C@H]1C[C@@H]2CC[C@@H](C)[C@@](O)(O2)C(=O)C(=O)N2CCCC[C@H]2C(=O)O[C@H]([C@H](C)C[C@@H]2CC[C@@H](OC(=O)C(C)(CO)CO)[C@H](OC)C2)CC(=O)[C@H](C)/C=C(\C)[C@@H](O)[C@@H](OC)C(=O)[C@H](C)C[C@H](C)/C=C/C=C/C=C/1C [temsirolimus] | -4.47 | -22 | -3.53 | -21 | -3.79 | -1.53 | 1.08 | -14 | -0.926 | -6.45 | 0.538 | -19 | -1.72 | – |
| C#Cc1cccc(Nc2ncnc3cc(OCCOC)c(OCCOC)cc23)c1 [erlotinib] | – | – | – | – | – | – | – | – | – | – | – | – | – | %-inhibition, CK1γ1 ([1]; 1 µM): 2.22%; %-inhibition, CDK5/p25 ([2]; 1 µM): 8%; %-inhibition of TRKA ([3]; 1 µM): 14%; %-inhibition of EPHA3 ([4]; 1 µM): 15%; %-inhibition of HIPK2 ([11]; 1 µM): 10%; %-inhibition of SRPK2 ([5]; 1 µM): 4.47%; %-inhibition, AKT3 ([13]; 1 µM): 8%; %-inhibition of MRCKα ([6]; 1 µM): -6%; %-inhibition of TRKB ([7]; 1 µM): 0.183%; %-inhibition of MNK2 ([8]; 1 µM): 35%; %-inhibition of FLT4 ([9]; 1 µM): 75%; %-inhibition of RSK1 ([10]; 1 µM): 9%; %-inhibition of PAK4 ([12]; 1 µM): -4% |
| CCCS(=O)(=O)Nc1ccc(F)c(C(=O)c2c[nH]c3ncc(-c4ccc(Cl)cc4)cc23)c1F [vemurafenib] | -2 | 5 | 16 | -7.52 | -2.2 | 0.383 | 11 | 27 | 24 | -1.32 | -5 | -7 | -0.678 | – |
| COc1cc2c(Nc3ccc(Br)cc3F)ncnc2cc1OCC1CCN(C)CC1 [vandetanib] | -4.74 | -25 | 46 | 57 | -9 | -6 | 26 | – | 104 | – | -11 | -11 | -0.887 | – |
| CS(=O)(=O)CCNCc1ccc(-c2ccc3ncnc(Nc4ccc(OCc5cccc(F)c5)c(Cl)c4)c3c2)o1 [lapatinib] | -8.54 | 0.201 | 5.64 | – | 4.47 | – | -10 | 2.43 | -2.21 | 2.59 | 1.46 | – | 5 | %-inhibition of EPHA3 ([4]; 1 µM): 0.372%; %-inhibition of MRCKα ([6]; 1 µM): -2.49% |
| CCN(CC)CCNC(=O)c1c(C)[nH]c(/C=C2\C(=O)Nc3ccc(F)cc32)c1C [sunitinib] | – | – | 98 | – | – | – | – | – | – | – | – | 6.58 | – | – |
| O=S(=O)(c1cccc2cnccc12)N1CCCNCC1 [fasudil] | -3 | – | -2.44 | -7 | -1.36 | -2.54 | -2.66 | 12 | 5.61 | – | -1.86 | – | 6 | – |
| Cc1ccc(Nc2nccc(N(C)c3ccc4c(C)n(C)nc4c3)n2)cc1S(N)(=O)=O [pazopanib] | -3 | 9 | – | 10 | -4 | -2.17 | – | 2.27 | – | 16 | 5.51 | 1.68 | -0.112 | – |
| COc1cc2nccc(Oc3ccc(NC(=O)C4(C(=O)Nc5ccc(F)cc5)CC4)cc3)c2cc1OC [cabozantinib] | 4.74 | -14 | 100 | 97 | 0.2 | 0.575 | – | 97 | 100 | -7.61 | 60 | -13 | -3 | – |
